Assay results taken from US20120225896A1, “NOVEL 2-PYRIDONE DERIVATIVE AND PHARMACEUTICAL PRODUCT CONTAINING SAME” (KOWA COMPANY, LTD., priority 2009, published 2012).
Read-outs that look alike come from different tables or passages of the source.

Assays:
human PPARγ2 = target: T1, human PPARγ2 (Homo sapiens, UniProt P37231); test: PPARγ activation activity, Gal4-PPARγ2 LBD chimera luciferase transfection assay in COST cells; assay type: cell-based
T1 construct: the amino acids 182 to 505 of human PPARγ2; expressed in transfected cells; African green monkey kidney
T1 sequence (P37231 182-505): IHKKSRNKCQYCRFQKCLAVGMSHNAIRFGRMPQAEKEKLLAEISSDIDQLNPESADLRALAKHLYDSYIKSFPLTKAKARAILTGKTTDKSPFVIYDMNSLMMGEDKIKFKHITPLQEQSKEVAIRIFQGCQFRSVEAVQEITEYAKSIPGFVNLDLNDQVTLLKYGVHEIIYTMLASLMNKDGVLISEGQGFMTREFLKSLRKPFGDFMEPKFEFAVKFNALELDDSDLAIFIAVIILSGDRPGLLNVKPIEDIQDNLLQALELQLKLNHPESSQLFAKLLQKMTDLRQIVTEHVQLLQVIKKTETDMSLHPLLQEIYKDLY
T1 sequence (P04386 1-147 partner limits assumed): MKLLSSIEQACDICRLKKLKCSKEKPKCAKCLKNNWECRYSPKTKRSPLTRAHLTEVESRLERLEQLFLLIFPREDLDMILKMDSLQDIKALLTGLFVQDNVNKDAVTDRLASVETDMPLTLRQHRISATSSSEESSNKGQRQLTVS
Procedure: PPARγ Activation Activity
The agonistic activity of the compounds of the invention on PPARγ was measured based on the transfection assay using COST cells (DS Pharma Biomedical Co., Ltd., Osaka, Japan), which are the cell line derived from the kidney of the African green monkey. COST cells were cultured under 5% CO2 concentration, and DMEM medium containing 10% fetal bovine serum, glutamic acid, and antibiotics was used as a medium.
As an expression vector, a chimera in which DNA binding domain of Ga14, which is a yeast transcription factor, and ligand binding domain of human PPARγ2 are fused, i.e., a fused product between the amino acids 1 to 147 of Gal4 transcription factor and the amino acids 182 to 505 of human PPARγ2, was used. Furthermore, as a reporter vector, a firefly luciferase containing five copies of Gal4 recognition sequence in the promoter region was used. Plasmid transfection to the cells was performed according to a method which uses jetPEI (trade name, manufactured by Funakoshi Co., Ltd., Tokyo, Japan). Furthermore, β-galactosidase expression vector was employed as an internal standard.
After the transfection of the cells, the medium was replaced with a DMEM medium (containing 1% serum) added with the test compound, and the cells were further cultured for 16 hours. After that, the luciferase activity and β-galactosidase activity in the cell lysis solution were measured.
For the present test, dimethyl sulfoxide (DMSO) was used for dissolution and dilution of the test compounds, and during the cell treatment, the DMSO concentration in DMEM medium (containing 1% serum) was adjusted to 0.1%. The 50% effective concentration of the test compound (EC50, 50% effect concentration) was calculated by using SAS Preclinical Package Ver 5.0 (trade name, manufactured by SAS institute Japan Co., Tokyo, Japan), which is a statistical analysis program.
As shown in the Table 2, it was confirmed that the compounds of the present invention have a potent PPARγ activation activity. Under the same condition, the PPARγ activation activity of telmisartan, i.e., EC50, was 1 to 5 μM.

[1] = target: T2, angiotensin II type 1 receptor (Oryctolagus cuniculus, UniProt P34976); test: Angiotensin II antagonistic activity in isolated rabbit blood vessels (angiotensin II-induced contraction of thoracic aorta ring); assay type: cell-based; details: angiotensin II (10 nM)-induced contraction, 37° C.
T2 construct: By using a specimen of isolated rabbit blood vessels; from tissue; host or cells: rabbit thoracic aorta ring (New Zealand White, male)
T2 sequence (P34976 1-359): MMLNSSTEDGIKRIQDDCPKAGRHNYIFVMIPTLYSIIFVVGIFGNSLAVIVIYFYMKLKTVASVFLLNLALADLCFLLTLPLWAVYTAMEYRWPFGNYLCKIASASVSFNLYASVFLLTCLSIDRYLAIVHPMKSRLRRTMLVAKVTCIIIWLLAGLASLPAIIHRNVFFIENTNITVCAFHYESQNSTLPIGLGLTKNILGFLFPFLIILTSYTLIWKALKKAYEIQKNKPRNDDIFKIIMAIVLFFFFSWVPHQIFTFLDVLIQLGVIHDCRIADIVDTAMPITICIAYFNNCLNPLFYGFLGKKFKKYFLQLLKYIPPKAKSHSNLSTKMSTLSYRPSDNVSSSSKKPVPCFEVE
From the text: Angiotensin II Antagonistic Activity in Isolated Rabbit Blood Vessels
By using a specimen of isolated rabbit blood vessels, antagonistic activity of the compounds of the invention against angiotensin II type 1 receptor was estimated from a dose-response curve of angiotensin II-induced blood vessel contraction. Specifically, the specimen of thoracic aorta ring of a rabbit (New Zealand White: male, 2.4 to 3.0 kg) was suspended in a magnus bath filled with Krebs-Henseleite buffer (composition: 118 mM NaCl, 4.7 mM KCl, 2.55 mM CaCl2, 1.18 mM MgSO4, 1.18 mM KH2PO4, 24.88 mM NaHCO3, and 11.1 mM D-glucose), and angiotensin II (10 nM)-induced contraction was obtained in the presence of the compounds of each example (1 nmol/L to 10 μmol/L). During the measurement, the inside temperature of the magnus bath was maintained at 37° C. and the bath was continuously ventilated with a sufficient amount of mixed gas (95% O2 and 5% CO2). The angiotensin II-induced contraction was converted into a relative value (%) that is based on the angiotensin II (10 nM)-induced contraction in the absence of the compounds of each example. From the concentration-response curve obtained therefrom, 50% inhibition concentration (IC50 value) was calculated by using SAS Preclinical Package Ver5.0 (trade name, manufactured by SAS institute Japan Co., Tokyo, Japan), which is a statistical analysis program.
As shown in the Table 1, it was confirmed that the compounds of the invention have a potent angiotensin II antagonistic activity.

[2] = COST cells transfected with Gal4 (aa 1-147)/human PPARγ2 (aa 182-505) chimera, luciferase reporter, 16 hours, read-out: EC50

Compound	EC50 (human PPARγ2; [2]) [µM]	EC50 (human PPARγ2) [µM]	IC50 [1] [µM]
CCCOc1cc(C)n(Cc2ccccc2)c(=O)c1Cc1ccc(-c2ccccc2-c2nnn[nH]2)cc1 [Example 17, 3-{[2′-(1H-tetrazol-5-yl)biphenyl-4-yl]methyl}-1-benzyl-6-m ethyl-4-propoxypyridin-2(1H)-one]	0.58	–	–
CCCc1nc2c(C)cc(-c3nc4ccccc4n3C)cc2n1Cc1ccc(-c2ccccc2C(=O)O)cc1 [telmisartan, reference compound]	–	1 to 5	–
CCCCc1cc(C)n(Cc2ccccc2)c(=O)c1Cc1ccc(-c2ccccc2-c2noc(=O)[nH]2)cc1 [Example 2, 3-{4′-[(1-benzyl-4-butyl-6-methyl-2-oxo-1,2-dihydropyridin-3-yl)methyl]biphenyl-2-yl}-1,2,4-oxadiazol-5(4H)-one]	0.26	–	–
CCCCc1cc(C)n(-c2ccccn2)c(=O)c1Cc1ccc(-c2ccccc2-c2noc(=O)[nH]2)cc1 [Example 16, 3-{4′-{[4-butyl-6-methyl-2-oxo-1-(pyridin-2-yl)-1,2-dihydropyridin-3-yl]methyl}biphenyl-2-yl}-1,2,4-oxadiazol-5(4H)-one]	1.4	–	–
CCCc1cc(C)n(Cc2ccccc2)c(=O)c1Cc1ccc(-c2ccccc2-c2nnn[nH]2)cc1 [Example 3, 3-{[2′-(1H-tetrazol-5-yl)biphenyl-4-yl]methyl}-1-benzyl-6-m ethyl-4-propylpyridin-2(1H)-one]	0.32	–	–
CCCCc1cc(C)n(-c2ccccn2)c(=O)c1Cc1ccc(-c2ccccc2-c2nnn[nH]2)cc1 [Example 15, 3-{[2′-(1H-tetrazol-5-yl)biphenyl-4-yl]methyl}-4-butyl-6-methyl-1-(pyridin-2-yl)pyridin-2(1H)-one]	1.66	–	0.46
CCCCc1cc(C)n(Cc2ccccc2)c(=O)c1Cc1ccc(-c2ccccc2-c2nnn[nH]2)cc1 [Example 1, 3-{[2′-(1H-tetrazol-5-yl)biphenyl-4-yl]methyl}-1-benzyl-4-butyl-6-methylpyridin-2(1H)-one]	0.4	–	–
CCCCc1cc(C)n(-c2ncc(OCC)cn2)c(=O)c1Cc1ccc(-c2ccccc2-c2noc(=O)[nH]2)cc1 [Example 12, 3-{4′-{[4-butyl-1-(5-ethoxypyrimidin-2-yl)-6-methyl-2-oxo-1,2-dihydropyridin-3-yl]methyl}biphenyl-2-yl}-1,2,4-oxadiazol-5(4H)-one]	0.59	–	0.46
CCCCc1cc(C)n(CCc2ccccc2)c(=O)c1Cc1ccc(-c2ccccc2-c2noc(=O)[nH]2)cc1 [Example 8, 3-{4′-[(4-butyl-6-methyl-2-oxo-1-phenethyl-1,2-dihydropyridin-3-yl)methyl]biphenyl-2-yl}-1,2,4-oxadiazol-5(4H)-one]	0.2	–	0.39
CCCCc1cc(C)n(-c2ncc(OCC)cn2)c(=O)c1Cc1ccc(-c2ccccc2-c2nnn[nH]2)cc1 [Example 11, 3-{[2′-(1H-tetrazol-5-yl)biphenyl-4-yl]methyl}-4-butyl-1-(5-ethoxypyrimidin-2-yl)-6-methylpyridin-2(1H)-one]	2.22	–	0.33
CCCCc1cc(C)n(CCOC)c(=O)c1Cc1ccc(-c2ccccc2-c2nnn[nH]2)cc1 [Example 9, 3-{[2′-(1H-tetrazol-5-yl)biphenyl-4-yl]methyl}-4-butyl-1-(2-methoxyethyl)-6-methylpyridin-2(1H)-one]	0.56	–	0.16
CCCOc1cc(C)n(Cc2ccccc2)c(=O)c1Cc1ccc(-c2ccccc2-c2noc(=O)[nH]2)cc1 [Example 18, 3-{4′-[(1-benzyl-6-methyl-2-oxo-4-propoxy-1,2-dihydropyridin-3-yl)methyl]biphenyl-2-yl}-1,2,4-oxadiazol-5(4H)-one]	0.14	–	–
CCCc1cc(C)n(Cc2ccccc2)c(=O)c1Cc1ccc(-c2ccccc2-c2noc(=O)[nH]2)cc1 [Example 4, 3-{4′-[(1-benzyl-6-methyl-2-oxo-4-propyl-1,2-dihydropyridin-3-yl)methyl]biphenyl-2-yl}-1,2,4-oxadiazol-5(4H)-one]	0.2	–	–
CCCCCc1cc(C)n(Cc2ccccc2)c(=O)c1Cc1ccc(-c2ccccc2-c2noc(=O)[nH]2)cc1 [Example 6, 3-{4′-[(1-benzyl-6-methyl-2-oxo-4-pentyl-1,2-dihydropyridin-3-yl)methyl]biphenyl-2-yl}-1,2,4-oxadiazol-5(4H)-one]	0.26	–	–
CCCCc1cc(C)n(-c2ncc(OC)cn2)c(=O)c1Cc1ccc(-c2ccccc2-c2noc(=O)[nH]2)cc1 [Example 14, 3-{4′-{[4-butyl-1-(5-methoxypyrimidin-2-yl)-6-methyl-2-oxo-1,2-dihydropyridin-3-yl]methyl}biphenyl-2-yl}-1,2,4-oxadiazol-5(4H)-one]	1.27	–	0.54
CCCCc1cc(C)n(CCOC)c(=O)c1Cc1ccc(-c2ccccc2-c2noc(=O)[nH]2)cc1 [Example 10, 3-{4′-{[4-butyl-1-(2-methoxyethyl)-6-methyl-2-oxo-1,2-dihydropyridin-3-yl)methyl]biphenyl-2-yl}-1,2,4-oxadiazol-5(4H)-one]	0.45	–	0.19
CCCCc1cc(C)n(CCc2ccccc2)c(=O)c1Cc1ccc(-c2ccccc2-c2nnn[nH]2)cc1 [Example 7, 3-{[2′-(1H-tetrazol-5-yl)biphenyl-4-yl]methyl}-4-butyl-6-methyl-1-phenethylpyridin-2(1H)-one]	0.27	–	0.58
CCCCCc1cc(C)n(Cc2ccccc2)c(=O)c1Cc1ccc(-c2ccccc2-c2nnn[nH]2)cc1 [Example 5, 3-{[2′-(1H-tetrazol-5-yl)biphenyl-4-yl]methyl}-1-benzyl-6-m ethyl-4-pentylpyridin-2(1H)-one]	0.5	–	–
